This test deals with T1, cPLA2 (Homo sapiens, UniProt P47712).
T1 sequence (P47712 1-749): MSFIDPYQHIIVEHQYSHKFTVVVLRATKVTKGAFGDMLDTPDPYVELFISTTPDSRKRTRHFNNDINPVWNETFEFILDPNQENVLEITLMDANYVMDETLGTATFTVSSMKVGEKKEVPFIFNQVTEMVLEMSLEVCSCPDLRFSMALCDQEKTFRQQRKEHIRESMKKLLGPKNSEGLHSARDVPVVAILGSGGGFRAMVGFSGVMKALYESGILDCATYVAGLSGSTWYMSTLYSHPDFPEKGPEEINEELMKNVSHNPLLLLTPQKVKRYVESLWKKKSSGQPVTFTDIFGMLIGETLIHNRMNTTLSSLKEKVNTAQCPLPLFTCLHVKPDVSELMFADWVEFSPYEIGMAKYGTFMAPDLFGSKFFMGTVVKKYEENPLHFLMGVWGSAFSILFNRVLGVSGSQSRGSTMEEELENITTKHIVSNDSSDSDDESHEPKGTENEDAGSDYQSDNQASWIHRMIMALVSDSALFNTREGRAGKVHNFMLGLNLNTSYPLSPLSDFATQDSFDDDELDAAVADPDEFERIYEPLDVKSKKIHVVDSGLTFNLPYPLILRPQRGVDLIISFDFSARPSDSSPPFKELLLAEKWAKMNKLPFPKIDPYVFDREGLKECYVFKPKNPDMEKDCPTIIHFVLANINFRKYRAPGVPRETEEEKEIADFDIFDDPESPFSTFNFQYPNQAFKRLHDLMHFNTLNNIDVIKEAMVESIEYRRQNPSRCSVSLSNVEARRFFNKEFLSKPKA
Put plainly: Coumarine assay (cPLA2 inhibition). The format is biochemical. The note with it: 7-hydroxycoumarinyl 6-heptenoate as monomeric substrate, fluorescence 360/460 nm; read-out: Coumarin IC50. The method, then:
7-hydroxycoumarinyl 6-heptenoate was used as a monomeric substrate for cPLA2 as reported previously (Huang, Z. et al., 1994, Nalytical Biochemistry 222, 110-115). Inhibitors were mixed with 200 μL assay buffer (80 mM Heped, pH 7.5, l mM EDTA) containing 60 μM 7-hydroxycoumarinyl 6-heptenoate. The reaction was initiated by adding 4 μg cPLA2 in 50 μL assay buffer. Hydrolysis of the 7-hydroxycoumarinyl 6-heptenoate ester was monitored in a fluorometer by exciting at 360 nm and monitoring emission at 460 nm. Enzyme activity is proportional to the increase in emission at 460 nm per minute. In the presence of a cPLA2 inhibitor, the rate of increase is less.

Structures are written as SMILES. pIC50: −log10 of the molar value.

`O=C(O)CCc1ccc(S(=O)(=O)CCn2cc(C(c3ccccc3)c3ccccc3)c3ccc(Cl)cc32)cc1` [Example 91, 3(4-{[2-(3-benzhydryl-6-chloro-1H-indol-1-yl)ethyl]sulfonyl}phenyl)propanoic acid]: the pIC50 (commonly the negative decadic logarithm of the IC50, by convention in mol/L) is 5.40.

Turning to `Cc1c(C(c2ccccc2)c2ccccc2)c2cc(Cl)ccc2n1C/C=C/COc1ccc(C(=O)O)cc1` [Example 88, 4-{[(E)-4-(3-benzhydryl-5-chloro-2-methyl-1H-indol-1-yl)-2-butenyl]oxy}benzoic acid], the pIC50 was 5.96. The result for `O=C(O)c1ccc(S(=O)(=O)CCn2cc(C(c3ccccc3)c3ccccc3)c3ccc(Cl)cc32)cc1` [Example 92, 4-{[2-(3-benzhydryl-6-chloro-1H-indol-1-yl)ethyl]sulfonyl}benzoic acid] reads 5.05.

Turning to `Cc1c(C(c2ccccc2)c2ccccc2)c2cc(Cl)ccc2n1CCOc1ccc(CCC(=O)O)cc1` [Example 90, 3-{4-[2-(3-benzhydryl-5-chloro-2-methyl-1H-indol-1-yl)ethoxy]phenyl}propanoic acid], the pIC50 was 5.92.

On to `Cc1c(C(c2ccccc2)c2ccccc2)c2ccccc2n1CCOc1ccc(C(=O)O)cc1` [Example 93, 4-[2-(3-benzhydryl-2-methyl-1H-indol-1-yl)ethoxy]benzoic acid], for which the pIC50 is 5.60.

On to `Cc1c(C(c2ccccc2)c2ccccc2)c2cc(Cl)ccc2n1CCOc1ccc(C(=O)O)cc1` [Example 89, 4-[2-(3benzhydryl-5-chloro-2-methyl-1H-indol-1-yl)ethoxy]benzoic acid], for which the pIC50 was 5.60.
